Results as given in patent publication US9505800B2, “Extended triterpene derivatives” (Myrexis, Inc., priority 2006, dated 2016).

Legend:
[1] = in vitro; details: human
[2] = tested on: HIV-1IIIB virus; assay: Determination of a compound's EC50 on MT-2 cell line (HIV-1IIIB infection, XTT/PMS viability read-out); type: cell-based; details: Table 1; for TI: TI = CC50:EC50 ratio
Protocol: Drug Preparation—The EC50 value for each compound is determined prior to determining the combination index. Each compound is tested in replicates of three, starting at a final concentration of 1 ug/mL. Compounds are dissolved in DMSO at a stock concentration of 10 mg/mL. Test compounds are serially diluted (4-fold dilutions) in a 96-flat-bottom-well plate. The initial working concentration of compound is 4× the desired final concentration. The final volume of drug per well is 45 uL. Included as controls are at least four wells containing cells only and four containing cells and virus in the absence of drug.
Virus Preparation—The HIV-1IIIB virus generated in the H9 cell line is diluted in culture media. The virus is used at a dilution that will cause 50%-75% cell death in day five post-infection as determined by XTT/PMS vital dye. Virus (45 uL) is added to all wells containing drug as well as the control wells.
Cell Preparation—MT-2 cells are added to each well at a volume of 90 uL per well at a cell concentration of 3.3×10^5 cells per mL. MT-2 cells are human T-cell leukemia cells isolated from cord blood lymphocytes and co-cultured with cells from patients with adult T-cell leukemia. […]
Assay—Culture plates are placed in a 37° C., 5% CO2, humidified incubator. […] XTT, (2,3-Bis(2-methoxy-4-nitro-5-sulfophenyl)-2H-tetrazolium-5-carboxanilide) is a yellow tetrazolium salt that, in the presence of dehydrogenase enzymes of metabolically active cells, is reduced to yield a soluble orange formazan dye, which can be measured by absorbance at 490 (or 450) nm in a microplate reader. […] For each plate to be analyzed, 5 mL of XTT/PMS is needed. […] Plates are placed uncovered into a 5% CO2, 37° C. incubator and read on plate reader at a wavelength of 450 nm after four hour incubation.
Data Compilation—The percent inhibition at a given concentration is determined by using the following formula: (average OD-virus control)/(cell control—virus control). The EC50 for each compound is calculated from the linear regression of percent inhibition.

[3] = CC50 (cytotoxicity) reported beside the EC50 values; method not described; details: human, MT-2 cells

| Compound | CC50 [1] | EC50 ([2]; Human immunodeficiency virus 1, MT2, 120 h, extended compound vs non-extended analog, MT-2 cells, HIV-1IIIB, day 5 post infection, XTT/PMS) | TI [2] | CC50 [3] |
| --- | --- | --- | --- | --- |
| C=C(C)[C@@H]1CC[C@]2(CCN3CCOCC3)CC[C@]3(C)[C@H](CC[C@@H]4[C@@]5(C)CC[C@H](OC(=O)CC(C)(C)CC(=O)O)C(C)(C)[C@@H]5CC[C@]43C)[C@@H]12 | 74.8 µM | 0.0221 µM | 3387 | – |
| C=C(C)[C@@H]1CC[C@]2(CN3CCOCC3)CC[C@]3(C)[C@H](CC[C@@H]4[C@@]5(C)CC[C@H](OC(=O)CC(C)(C)CC(=O)O)C(C)(C)[C@@H]5CC[C@]43C)[C@@H]12 | – | – | 135 | 10.4 µM |
